Assay results taken from paper PMC10178848, “Modulating fast skeletal muscle contraction protects skeletal muscle in animal models of Duchenne muscular dystrophy” (The Journal of Clinical Investigation, 2023).

Assays:
[1] = system: GABAA; assay: SAFETYscan Ion Channel; assay type: cell-based; conditions: 10 uM
Procedure: (§1) The specificity of EDG-5506 for fast skeletal myosin over other, unrelated proteins was confirmed using two off-target binding and activity screens. […] A second off-target panel (SAFETYscan E/IC50 ELECT, Eurofins DiscoverX) tested in vitro enzyme activity against 78 proteins, including GPCR, ion channel, kinases, nuclear hormone receptors, and transporters. In all assays, the IC50 of EDG-5506 was more than 10 μM (Supplemental Data File 1).

[2] = target: T1, MKNK2 (Homo sapiens, UniProt Q9HBH9); assay: KINOMEscan scanEDGE; assay type: binding; conditions: 20 uM
T1 construct: purchased Eurofins DiscoverX (KINOMEscan; SAFETYscan E/IC50 ELECT)

[3] = target: T2, AKT2 (Homo sapiens, UniProt P31751); assay: KINOMEscan scanEDGE; assay type: binding; conditions: 20 uM
T2 construct: purchased Eurofins DiscoverX (KINOMEscan; SAFETYscan E/IC50 ELECT)

[4] = target: T3, IKK-beta (Homo sapiens, UniProt O14920); assay: KINOMEscan scanEDGE; assay type: binding; conditions: 20 uM
T3 construct: purchased Eurofins DiscoverX (KINOMEscan; SAFETYscan E/IC50 ELECT)

[5] = target: T4, PIM1 (Homo sapiens, UniProt P11309); assay: KINOMEscan scanEDGE; assay type: binding; conditions: 20 uM
T4 construct: purchased Eurofins DiscoverX (KINOMEscan; SAFETYscan E/IC50 ELECT)
Procedure: as §1

[6] = target: T5, BTK (Homo sapiens, UniProt Q06187); assay: KINOMEscan scanEDGE; assay type: binding; conditions: 20 uM
T5 construct: purchased Eurofins DiscoverX (KINOMEscan; SAFETYscan E/IC50 ELECT)
Procedure: as §1

[7] = target: T6, EPHA2 (Homo sapiens, UniProt P29317); assay: KINOMEscan scanEDGE; assay type: binding; conditions: 20 uM
T6 construct: purchased Eurofins DiscoverX (KINOMEscan; SAFETYscan E/IC50 ELECT)
Procedure: as §1

[8] = target: T7, MLK1 (Homo sapiens, UniProt P80192); assay: KINOMEscan scanEDGE; assay type: binding; conditions: 20 uM
T7 construct: purchased Eurofins DiscoverX (KINOMEscan; SAFETYscan E/IC50 ELECT)
Procedure: as §1

[9] = target: T8, KIT(V559D,T670I) (Homo sapiens, UniProt P10721, T670I/V559D); assay: KINOMEscan scanEDGE; assay type: binding; conditions: 20 uM
T8 construct: purchased Eurofins DiscoverX (KINOMEscan; SAFETYscan E/IC50 ELECT)
Procedure: as §1

[10] = target: T9, CSNK1G2 (Homo sapiens, UniProt P78368); assay: KINOMEscan scanEDGE; assay type: binding; conditions: 20 uM
T9 construct: purchased Eurofins DiscoverX (KINOMEscan; SAFETYscan E/IC50 ELECT)
Procedure: as §1

[11] = target: T10, KIT (Homo sapiens, UniProt P10721); assay: KINOMEscan scanEDGE; assay type: binding; conditions: 20 uM
T10 construct: purchased Eurofins DiscoverX (KINOMEscan; SAFETYscan E/IC50 ELECT)
Procedure: as §1

[12] = target: T11, JNK1 (Homo sapiens, UniProt P45983); assay: KINOMEscan scanEDGE; assay type: binding; conditions: 20 uM
T11 construct: purchased Eurofins DiscoverX (KINOMEscan; SAFETYscan E/IC50 ELECT)

[13] = target: T12, AXL (Homo sapiens, UniProt P30530); assay: KINOMEscan scanEDGE; assay type: binding; conditions: 20 uM
T12 construct: purchased Eurofins DiscoverX (KINOMEscan; SAFETYscan E/IC50 ELECT)

[14] = target: T13, ACVR1B (Homo sapiens, UniProt P36896); assay: KINOMEscan scanEDGE; assay type: binding; conditions: 20 uM
T13 construct: purchased Eurofins DiscoverX (KINOMEscan; SAFETYscan E/IC50 ELECT)

[15] = target: T14, PAK2 (Homo sapiens, UniProt Q13177); assay: KINOMEscan scanEDGE; assay type: binding; conditions: 20 uM
T14 construct: purchased Eurofins DiscoverX (KINOMEscan; SAFETYscan E/IC50 ELECT)

[16] = system: rat cardiac muscle fibers; assay: Skinned fiber force, rat cardiac trabeculae; set-up: dose or concentration left out as unconfirmed; conditions: rat cardiac trabecular strips
Procedure: (§2) Measurement of isometric force in skinned fibers from rabbit psoas, rat soleus, and rat cardiac trabeculae were performed as described previously ([65]) with an 802D fiber system (Aurora Scientific). Muscle bundles were thawed from –80°C and placed in relaxing solution. Single fibers were transferred to the testing apparatus with steel pins connected to a force transducer and motor (model 403A and 322C, Aurora Scientific), and collodion glue was applied. Temperature was set to 15°C for skeletal fibers and 30°C for rat cardiac trabeculae. The wells of the 802D were filled with different ratios of relaxing and activating pCa solutions as detailed previously ([65]). All control solutions contained 1% final DMSO. Traces were compared between control and compound runs to evaluate isometric force and calcium sensitivity.

[17] = target: T15, p38-beta (Homo sapiens, UniProt Q15759); assay: KINOMEscan scanEDGE; assay type: binding; conditions: 20 uM
T15 construct: purchased Eurofins DiscoverX (KINOMEscan; SAFETYscan E/IC50 ELECT)

[18] = target: T16, VEGFR2 (Homo sapiens, UniProt P35968); assay: KINOMEscan scanEDGE; assay type: binding; conditions: 20 uM
T16 construct: purchased Eurofins DiscoverX (KINOMEscan; SAFETYscan E/IC50 ELECT)

[19] = target: T17, TRKA (Homo sapiens, UniProt P04629); assay: KINOMEscan scanEDGE; assay type: binding; conditions: 20 uM
T17 construct: purchased Eurofins DiscoverX (KINOMEscan; SAFETYscan E/IC50 ELECT)

[20] = target: T18, ERBB4 (Homo sapiens, UniProt Q15303); assay: KINOMEscan scanEDGE; assay type: binding; conditions: 20 uM
T18 construct: purchased Eurofins DiscoverX (KINOMEscan; SAFETYscan E/IC50 ELECT)

[21] = target: T19, SRPK3 (Homo sapiens, UniProt Q9UPE1); assay: KINOMEscan scanEDGE; assay type: binding; conditions: 20 uM
T19 construct: purchased Eurofins DiscoverX (KINOMEscan; SAFETYscan E/IC50 ELECT)

[22] = target: T20, PLK1 (Homo sapiens, UniProt P53350); assay: KINOMEscan scanEDGE; assay type: binding; conditions: 20 uM
T20 construct: purchased Eurofins DiscoverX (KINOMEscan; SAFETYscan E/IC50 ELECT)

[23] = target: T21, ALK (Homo sapiens, UniProt Q9UM73); assay: KINOMEscan scanEDGE; assay type: binding; conditions: 20 uM
T21 construct: purchased Eurofins DiscoverX (KINOMEscan; SAFETYscan E/IC50 ELECT)

[24] = target: T22, RIOK2 (Homo sapiens, UniProt Q9BVS4); assay: KINOMEscan scanEDGE; assay type: binding; conditions: 20 uM
T22 construct: purchased Eurofins DiscoverX (KINOMEscan; SAFETYscan E/IC50 ELECT)

[25] = target: T23, TSSK1B (Homo sapiens, UniProt Q9BXA7); assay: KINOMEscan scanEDGE; assay type: binding; conditions: 20 uM
T23 construct: purchased Eurofins DiscoverX (KINOMEscan; SAFETYscan E/IC50 ELECT)

[26] = target: T24, DYRK1B (Homo sapiens, UniProt Q9Y463); assay: KINOMEscan scanEDGE; assay type: binding; conditions: 20 uM
T24 construct: purchased Eurofins DiscoverX (KINOMEscan; SAFETYscan E/IC50 ELECT)

[27] = system: fast rabbit psoas muscle fibers; assay: Skinned fiber force, rabbit psoas; conditions: Oryctolagus cuniculus, maximal force at pCa 4.5, read-out: IC50, force in single skinned fibers
Procedure: as §2

[28] = target: T25, ERK1 (Homo sapiens, UniProt P27361); assay: KINOMEscan scanEDGE; assay type: binding; conditions: 20 uM
T25 construct: purchased Eurofins DiscoverX (KINOMEscan; SAFETYscan E/IC50 ELECT)

[29] = target: T26, INSR (Homo sapiens, UniProt P06213); assay: KINOMEscan scanEDGE; assay type: binding; conditions: 20 uM
T26 construct: purchased Eurofins DiscoverX (KINOMEscan; SAFETYscan E/IC50 ELECT)

[30] = system: mouse TA muscle; assay: In situ TA force and lengthening injury; assay type: in vivo; conditions: oral
Procedure: Measurement of isometric force and eccentric injury response in situ was performed in mouse TA muscle based on published protocols ([30]). Mice were anesthetized with 2% isoflurane (0.7%–1.5% maintenance) on a 37°C platform. The distal tendon to the TA and EDL muscle was attached with 4-0 suture a servomotor (Aurora Scientific). The sciatic nerve was exposed at the knee for hook electrodes. For compound assessment, baseline isometric contraction was assessed at 25–175 Hz (9 mA, 300 ms) followed by 100 Hz stimuli every 5 minutes. After 15 minutes, compound was dosed PO, and recording continued for 4 hours followed by a second force frequency. For in situ eccentric injury, compound was administered PO, muscle was stimulated every 5 minutes at 100 Hz for 3.5 hours, and then 2 lengthening contractions were performed (10 min apart, 100 ms at 150 Hz, then lengthening 0.2 L0 at 2 L0/s and hold for 100 ms). Isometric force before and 10 minutes after the injury contractions was recorded.

[31] = target: T27, PLK3 (Homo sapiens, UniProt Q9H4B4); assay: KINOMEscan scanEDGE; assay type: binding; conditions: 20 uM
T27 construct: purchased Eurofins DiscoverX (KINOMEscan; SAFETYscan E/IC50 ELECT)

T19 sequence (Q9UPE1 whole entry): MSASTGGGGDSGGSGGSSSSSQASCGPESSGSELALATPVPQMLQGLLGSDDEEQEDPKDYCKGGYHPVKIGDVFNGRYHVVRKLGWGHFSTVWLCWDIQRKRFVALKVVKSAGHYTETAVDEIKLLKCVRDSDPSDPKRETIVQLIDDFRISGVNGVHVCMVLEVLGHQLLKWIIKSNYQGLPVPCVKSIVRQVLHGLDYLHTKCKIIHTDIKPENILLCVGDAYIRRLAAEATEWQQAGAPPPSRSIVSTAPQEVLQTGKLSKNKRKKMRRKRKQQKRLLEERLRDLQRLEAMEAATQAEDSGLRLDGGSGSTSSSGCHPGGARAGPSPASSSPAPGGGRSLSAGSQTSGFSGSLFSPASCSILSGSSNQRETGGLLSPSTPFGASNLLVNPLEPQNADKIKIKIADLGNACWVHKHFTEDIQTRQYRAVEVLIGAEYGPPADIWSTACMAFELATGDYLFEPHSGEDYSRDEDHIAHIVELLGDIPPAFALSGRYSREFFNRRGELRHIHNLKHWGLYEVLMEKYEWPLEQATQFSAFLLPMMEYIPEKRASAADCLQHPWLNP
T17 sequence (P04629 33-796): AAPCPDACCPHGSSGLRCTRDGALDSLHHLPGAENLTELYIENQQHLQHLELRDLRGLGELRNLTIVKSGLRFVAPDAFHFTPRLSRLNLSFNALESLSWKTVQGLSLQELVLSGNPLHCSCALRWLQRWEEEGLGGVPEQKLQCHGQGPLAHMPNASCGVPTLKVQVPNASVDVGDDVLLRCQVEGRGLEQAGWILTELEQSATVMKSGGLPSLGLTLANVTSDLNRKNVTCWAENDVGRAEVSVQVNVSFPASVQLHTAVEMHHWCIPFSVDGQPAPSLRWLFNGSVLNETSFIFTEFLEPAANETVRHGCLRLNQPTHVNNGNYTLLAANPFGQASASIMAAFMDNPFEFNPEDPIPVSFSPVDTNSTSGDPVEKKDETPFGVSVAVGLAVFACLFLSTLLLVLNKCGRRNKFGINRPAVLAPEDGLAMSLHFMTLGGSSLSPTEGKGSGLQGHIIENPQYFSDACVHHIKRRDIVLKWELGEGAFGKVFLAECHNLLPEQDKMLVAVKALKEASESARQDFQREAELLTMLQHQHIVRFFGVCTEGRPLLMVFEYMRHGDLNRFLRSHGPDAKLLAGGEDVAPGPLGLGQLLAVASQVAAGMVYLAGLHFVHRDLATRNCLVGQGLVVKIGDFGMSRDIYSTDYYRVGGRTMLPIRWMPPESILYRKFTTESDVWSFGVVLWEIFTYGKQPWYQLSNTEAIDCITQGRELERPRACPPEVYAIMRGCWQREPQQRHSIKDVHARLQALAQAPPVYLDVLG
T14 sequence (Q13177 whole entry): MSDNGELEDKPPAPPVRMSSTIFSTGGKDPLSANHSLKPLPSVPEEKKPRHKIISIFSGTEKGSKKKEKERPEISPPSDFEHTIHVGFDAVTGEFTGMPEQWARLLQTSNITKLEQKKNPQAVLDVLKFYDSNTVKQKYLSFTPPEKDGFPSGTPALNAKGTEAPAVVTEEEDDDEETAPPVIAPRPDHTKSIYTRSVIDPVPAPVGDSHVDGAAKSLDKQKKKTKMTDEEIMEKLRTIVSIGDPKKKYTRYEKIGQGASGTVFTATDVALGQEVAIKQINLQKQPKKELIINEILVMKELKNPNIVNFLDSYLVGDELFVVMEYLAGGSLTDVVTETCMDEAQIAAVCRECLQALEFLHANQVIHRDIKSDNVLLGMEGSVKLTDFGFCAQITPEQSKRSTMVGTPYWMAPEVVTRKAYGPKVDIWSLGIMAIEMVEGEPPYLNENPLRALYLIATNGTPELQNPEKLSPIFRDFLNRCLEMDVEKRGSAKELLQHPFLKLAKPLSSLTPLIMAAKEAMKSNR
T22 sequence (Q9BVS4 whole entry): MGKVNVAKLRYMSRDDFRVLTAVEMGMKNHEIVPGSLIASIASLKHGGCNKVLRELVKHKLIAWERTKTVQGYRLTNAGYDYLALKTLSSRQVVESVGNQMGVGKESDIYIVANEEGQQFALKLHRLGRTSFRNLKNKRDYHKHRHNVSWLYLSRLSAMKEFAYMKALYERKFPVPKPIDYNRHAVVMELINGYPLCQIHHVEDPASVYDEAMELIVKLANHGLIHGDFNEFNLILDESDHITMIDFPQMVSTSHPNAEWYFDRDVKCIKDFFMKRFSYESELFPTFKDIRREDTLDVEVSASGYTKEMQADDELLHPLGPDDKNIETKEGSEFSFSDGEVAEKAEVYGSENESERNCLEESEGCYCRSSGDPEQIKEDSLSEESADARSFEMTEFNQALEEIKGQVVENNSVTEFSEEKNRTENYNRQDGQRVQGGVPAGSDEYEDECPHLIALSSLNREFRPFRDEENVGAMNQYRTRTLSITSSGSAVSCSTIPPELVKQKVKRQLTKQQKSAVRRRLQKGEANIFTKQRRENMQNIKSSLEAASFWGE
T26 sequence (P06213 28-1382): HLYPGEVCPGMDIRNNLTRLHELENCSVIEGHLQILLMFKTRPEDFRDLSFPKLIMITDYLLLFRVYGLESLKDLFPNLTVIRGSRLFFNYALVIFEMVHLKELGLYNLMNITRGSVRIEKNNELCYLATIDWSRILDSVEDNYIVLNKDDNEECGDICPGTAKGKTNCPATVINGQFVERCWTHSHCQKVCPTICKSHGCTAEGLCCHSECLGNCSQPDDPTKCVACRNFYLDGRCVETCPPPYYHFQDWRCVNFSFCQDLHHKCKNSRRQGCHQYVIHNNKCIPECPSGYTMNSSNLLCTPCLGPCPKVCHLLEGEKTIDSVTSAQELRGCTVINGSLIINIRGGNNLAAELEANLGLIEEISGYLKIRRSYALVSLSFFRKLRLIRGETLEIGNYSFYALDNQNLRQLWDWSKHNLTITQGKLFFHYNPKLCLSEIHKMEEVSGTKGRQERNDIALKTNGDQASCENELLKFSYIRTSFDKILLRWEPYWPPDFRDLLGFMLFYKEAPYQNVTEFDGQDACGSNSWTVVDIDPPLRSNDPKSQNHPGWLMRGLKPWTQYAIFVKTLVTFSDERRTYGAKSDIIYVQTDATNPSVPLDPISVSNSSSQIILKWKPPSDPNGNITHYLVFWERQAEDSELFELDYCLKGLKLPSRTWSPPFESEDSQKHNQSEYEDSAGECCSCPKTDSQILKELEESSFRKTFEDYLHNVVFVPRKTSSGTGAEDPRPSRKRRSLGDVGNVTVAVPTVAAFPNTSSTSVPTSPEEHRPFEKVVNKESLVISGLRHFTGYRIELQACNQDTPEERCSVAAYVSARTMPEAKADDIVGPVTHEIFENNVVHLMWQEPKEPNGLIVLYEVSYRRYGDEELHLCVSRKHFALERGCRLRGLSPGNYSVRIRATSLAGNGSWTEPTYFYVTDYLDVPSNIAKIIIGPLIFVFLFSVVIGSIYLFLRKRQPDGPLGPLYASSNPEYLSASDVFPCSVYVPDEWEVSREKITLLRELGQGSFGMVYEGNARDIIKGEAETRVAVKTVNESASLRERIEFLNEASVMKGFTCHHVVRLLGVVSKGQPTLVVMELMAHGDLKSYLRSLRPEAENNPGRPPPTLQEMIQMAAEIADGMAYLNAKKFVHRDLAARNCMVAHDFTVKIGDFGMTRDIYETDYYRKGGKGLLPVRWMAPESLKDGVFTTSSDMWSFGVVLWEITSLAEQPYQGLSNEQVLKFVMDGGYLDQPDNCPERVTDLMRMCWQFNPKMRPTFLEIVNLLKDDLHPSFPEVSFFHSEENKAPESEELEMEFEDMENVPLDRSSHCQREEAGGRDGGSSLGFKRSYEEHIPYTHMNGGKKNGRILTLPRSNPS
T11 sequence (P45983 whole entry): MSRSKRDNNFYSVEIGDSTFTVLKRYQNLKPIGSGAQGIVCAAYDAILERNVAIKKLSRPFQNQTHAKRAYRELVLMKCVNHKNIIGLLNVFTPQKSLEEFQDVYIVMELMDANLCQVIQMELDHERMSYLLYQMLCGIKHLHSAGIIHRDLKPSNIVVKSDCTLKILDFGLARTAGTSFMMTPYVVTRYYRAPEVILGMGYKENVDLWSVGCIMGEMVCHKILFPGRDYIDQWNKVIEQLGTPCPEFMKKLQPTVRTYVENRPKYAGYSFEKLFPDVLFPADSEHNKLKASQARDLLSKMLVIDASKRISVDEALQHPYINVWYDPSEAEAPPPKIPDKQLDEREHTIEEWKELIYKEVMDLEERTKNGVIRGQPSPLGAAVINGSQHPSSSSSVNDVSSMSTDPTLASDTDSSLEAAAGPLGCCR
T24 sequence (Q9Y463 whole entry): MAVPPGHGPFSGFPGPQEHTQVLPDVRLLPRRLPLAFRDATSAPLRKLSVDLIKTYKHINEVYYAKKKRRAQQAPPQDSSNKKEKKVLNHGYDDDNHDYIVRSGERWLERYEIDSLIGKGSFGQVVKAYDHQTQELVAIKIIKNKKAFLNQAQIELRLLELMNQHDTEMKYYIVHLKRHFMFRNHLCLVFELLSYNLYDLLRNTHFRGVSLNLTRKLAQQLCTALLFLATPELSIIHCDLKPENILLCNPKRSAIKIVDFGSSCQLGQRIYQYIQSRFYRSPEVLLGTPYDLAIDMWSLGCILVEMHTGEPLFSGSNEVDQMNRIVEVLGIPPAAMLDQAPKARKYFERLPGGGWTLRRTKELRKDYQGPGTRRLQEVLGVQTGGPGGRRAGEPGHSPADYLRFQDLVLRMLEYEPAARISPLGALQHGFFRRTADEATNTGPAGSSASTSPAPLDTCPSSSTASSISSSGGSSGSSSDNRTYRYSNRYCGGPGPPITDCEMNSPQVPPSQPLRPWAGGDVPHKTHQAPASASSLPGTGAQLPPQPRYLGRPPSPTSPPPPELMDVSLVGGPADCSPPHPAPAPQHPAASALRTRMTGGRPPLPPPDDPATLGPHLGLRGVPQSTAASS

Structure (SMILES): O=c1ccc(-c2cnc(OCC(F)(F)F)nc2)nn1Cc1cncc(F)c1 [EDG-5506]
- Max Response (%) (Agonist) [1]: 4.91%
- Max Response (%) (Antagonist) [1]: 7.72%
- binding, % of control [2]: 92 % of control
- binding, % of control [3]: 93 % of control
- binding, % of control [4]: 94 % of control
- binding, % of control [5]: 97 % of control
- binding, % of control [6]: 93 % of control
- binding, % of control [7]: 58 % of control
- binding, % of control [8]: 98 % of control
- binding, % of control [9]: 100 % of control
- binding, % of control [10]: 96 % of control
- binding, % of control [11]: 98 % of control
- binding, % of control [12]: 72 % of control
- binding, % of control [13]: 92 % of control
- binding, % of control [14]: 91 % of control
- binding, % of control [15]: 98 % of control
- effect on force, cardiac muscle fibers [16]: no effect
- binding, % of control [17]: 54 % of control
- binding, % of control [18]: 77 % of control
- binding, % of control [19]: 98 % of control
- binding, % of control [20]: 93 % of control
- binding, % of control [21]: 95 % of control
- binding, % of control [22]: 100 % of control
- binding, % of control [23]: 95 % of control
- binding, % of control [24]: 80 % of control
- binding, % of control [25]: 97 % of control
- binding, % of control [26]: 100 % of control
- IC50 [27]: 700 nM
- binding, % of control [28]: 100 % of control
- binding, % of control [29]: 96 % of control
- decrease in isometric force at protective doses ([30]; mdx TA in situ): < 10%
- strength drop after in situ lengthening injury ([30]; mdx TA muscle, 2 lengthening contractions): dramatically improved
- binding, % of control [31]: 95 % of control
